Experimental findings from BindingDB's records for doi:10.1016/0960-894X(96)00045-5 (1996) are described below.

Usually Ki stands for the dissociation constant of the complex between target and ligand, obtained from inhibition or displacement.

Chain of 5-hydroxytryptamine receptor 1A (Rattus norvegicus) (P19327 whole entry, looked up): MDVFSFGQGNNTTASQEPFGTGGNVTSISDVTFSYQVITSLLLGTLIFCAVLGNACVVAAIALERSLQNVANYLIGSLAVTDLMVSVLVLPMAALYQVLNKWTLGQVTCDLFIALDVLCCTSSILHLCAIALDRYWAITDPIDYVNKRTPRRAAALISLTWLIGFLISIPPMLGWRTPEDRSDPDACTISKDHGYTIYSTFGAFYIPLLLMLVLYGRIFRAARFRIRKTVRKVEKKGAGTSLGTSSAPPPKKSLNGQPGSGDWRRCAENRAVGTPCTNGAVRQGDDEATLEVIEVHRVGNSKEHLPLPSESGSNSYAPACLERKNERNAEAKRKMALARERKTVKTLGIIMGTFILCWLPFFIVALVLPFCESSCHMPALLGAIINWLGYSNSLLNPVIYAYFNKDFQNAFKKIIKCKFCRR

The experiment has as its target 5-hydroxytryptamine receptor 1A (Rattus norvegicus) (UniProt P19327). The experiment in a line: Inhibition of specific [3H]OH-DPAT binding at 5-hydroxytryptamine 1A receptor in rat hippocampal membranes.
Consider `CCCN(CCC)C[C@@H]1C[C@@H]1c1ccccc1O` [2-((1S,2R)-2-Dipropylaminomethyl-cyclopropyl)-phenol], for which affinity was put at a Ki of 0.379 µM.

In the case of `CCN(CC)C[C@H]1C[C@@H]1c1ccccc1O` [2-((1S,2S)-2-Diethylaminomethyl-cyclopropyl)-phenol], the Ki worked out at 0.506 µM.

On to `CCCN(CCC)C[C@H]1C[C@@H]1c1ccccc1O` [2-((1S,2S)-2-Dipropylaminomethyl-cyclopropyl)-phenol], for which the Ki worked out at 0.752 µM.

As to `CCCN(CCC)C[C@@H]1C[C@@H]1c1cccc(O)c1` [3-((1S,2R)-2-Dipropylaminomethyl-cyclopropyl)-phenol], affinity was put at a Ki of 0.058 µM.

For `CCCN(CCC)C[C@H]1C[C@@H]1c1cccc(O)c1` [3-((1S,2S)-2-Dipropylaminomethyl-cyclopropyl)-phenol], the Ki is 0.186 µM.

On to `CCN(CC)C[C@H]1C[C@@H]1c1ccccc1OC` [Diethyl-[(1S,2S)-2-(2-methoxy-phenyl)-cyclopropylmethyl]-amine], for which the Ki was found to be 0.431 µM.

In the case of `CCCN(CCC)[C@@H]1C[C@@H]1c1ccccc1OC` [[(1R,2R)-2-(2-Methoxy-phenyl)-cyclopropyl]-dipropyl-amine], the Ki is > 10 µM.

Regarding `CCCN(CCC)[C@@H]1C[C@@H]1c1cccc(OC)c1` [[(1R,2R)-2-(3-Methoxy-phenyl)-cyclopropyl]-dipropyl-amine], the Ki was 0.736 µM.

`CCCN(CCC)C[C@@H]1C[C@@H]1c1ccccc1OC` [[(1R,2S)-2-(2-Methoxy-phenyl)-cyclopropylmethyl]-dipropyl-amine]: the Ki is 0.998 µM.

For the compound `CCCN(CCC)C[C@@H]1C[C@@H]1c1cccc(OC)c1` [[(1R,2S)-2-(3-Methoxy-phenyl)-cyclopropylmethyl]-dipropyl-amine], the Ki stood at 0.388 µM.

Compound `CCCN(CCC)[C@H]1C[C@@H]1c1ccccc1OC` [[(1S,2R)-2-(2-Methoxy-phenyl)-cyclopropyl]-dipropyl-amine] showed a Ki of 0.017 µM.

As to `CCCN(CCC)C[C@H]1C[C@@H]1c1ccccc1OC` [[(1S,2S)-2-(2-Methoxy-phenyl)-cyclopropylmethyl]-dipropyl-amine], the Ki worked out at 0.239 µM.

Compound `CCCN(CCC)C[C@H]1C[C@@H]1c1cccc(OC)c1` [[(1S,2S)-2-(3-Methoxy-phenyl)-cyclopropylmethyl]-dipropyl-amine] had a Ki of 0.31 µM.
